Experimental data published in US20230057979A1, “MEDICINAL COMPOSITIONS FOR CARBON DIOXIDE BASED METERED DOSE INHALERS” (KINDEVA DRUG DELIVERY L.P., priority 2020, published 2023).

Assays:
[1] = Beclomethasone Dipropionate (BDP) Aerodynamic Particle Size Distribution (APSD) by NGI; format: physicochemical; settings: Example 6 formulation, NGI 30 L/min, five actuations, average of three canisters
Method: APSD was determined using a Next Generation Impactor (NGI Model 170, Copley Scientific Limited UK) at a flow rate of 30±0.5 L/min drawn using a high-capacity pump (HCP5, Copley Scientific Limited, UK) the flow rate determined using a digital flow meter (Model 4043, TSI Instruments). The filter stage was fitted with a Whatman grade 934-AH glass microfiber filter. Units were tested at the start of life using a 3M Mark 6 actuator (3M, Loughborough, UK) with an exit orifice diameter of 0.25 mm and a jet length of 0.8 mm. Prior to testing, the inhaler was actuated five times to ensure the valve was primed after which the valve stem was cleaned and dried. The inhaler was then attached to the NGI with the use of an appropriate coupler and actuated five times into the NGI. The BDP was recovered from each component using methanol (HPLC grade, Thermo Fisher Scientific, Inc., Waltham, Mass.) using a volume of 10 mL for the stem/can, 30 mL for the throat/coupler, 5 mL for cups 1 to 4 and 20 mL for all other components. Recovery was performed using a rocker station (Gentle Rocker 4515, Copley Scientific Limited UK). Samples were assayed by reversed phase isocratic liquid chromatography using UV detection (Acquity H-Class UPLC, Waters Limited) with the parameter settings presented in Table 1. [table]

[2] = stated in description, cited from earlier work
[3] = Salbutamol Sulphate Aerodynamic Particle Size Distribution (APSD) by NGI; format: physicochemical; settings: Example 7 formulation, NGI 30 L/min, six actuations, average of three canisters
Method: APSD was determined using a Next Generation Impactor as described in the BDP APSD test method. Prior to testing, the inhaler was actuated five times to ensure the valve was primed after which the valve stem was cleaned and dried. The inhaler was then attached to the NGI with the use of an appropriate coupler and actuated six times into the NGI. The Salbutamol sulphate was recovered from each component using a solution of acetonitrile/0.1% phosphoric acid in water (9:1 v/v) using a volume of 20 mL for the throat/coupler and 10 mL for all other components. Recovery was performed using a rocker station (Gentle Rocker, Copley Scientific Limited UK). Samples were assayed by reversed phase gradient liquid chromatography using UV detection (HP1100, Agilent Technologies UK Limited), with the parameter settings in Table 2 and Table 3. [table] [table]

## CCC(=O)OCC(=O)[C@@]1(OC(=O)CC)[C@@H](C)C[C@H]2[C@@H]3CCC4=CC(=O)C=C[C@]4(C)[C@@]3(Cl)[C@@H](O)C[C@@]21C [BDP, beclomethasone dipropionate]
[1]
  BDP deposited: Actuator: 10.8 µg
  BDP deposited: Cup 1: 0.3 µg
  BDP deposited: Cup 2: 0.1 µg
  BDP deposited: Cup 3: 0.1 µg
  BDP deposited: Cup 4: 0.8 µg
  BDP deposited: Cup 5: 4.3 µg
  BDP deposited: Cup 6: 7.4 µg
  BDP deposited: Cup 7: 4.7 µg
  BDP deposited: Filter: 1.6 µg
  BDP deposited: MOC: 5.9 µg
  BDP deposited: Stem: 3.6 µg
  BDP deposited: Throat/Coupler: 59.0 µg

## O=C=O [carbon dioxide]
[2]; pure liquid propellant, about 20 °C
  vapor pressure at about 20° C.: about 57 bar
[2]; pure liquid propellant, about 40 °C
  vapor pressure at about 40° C.: about 80 bar
[2]; pure propellant
  liquid to supercritical phase transition temperature or critical point temperature: about 31 °C

## salbutamol sulphate [SS]
[3]
  SS deposited: Actuator: 7.9 µg
  SS deposited: Cup 1: 0.20 µg
  SS deposited: Cup 2: 0.07 µg
  SS deposited: Cup 3: 0.45 µg
  SS deposited: Cup 4: 2.5 µg
  SS deposited: Cup 5: 3.7 µg
  SS deposited: Cup 6: 2.1 µg
  SS deposited: Cup 7: 0.60 µg
  SS deposited: Filter: 0.05 µg
  SS deposited: MOC: 0.29 µg
  SS deposited: Stem: 1.4 µg
  SS deposited: Throat/Coupler: 54.2 µg
